Measurements as given in ChEMBL document CHEMBL3885861, “Open TG-GATES”.

Species on record: Rattus norvegicus
Test: Open TG-GATES - Regimen: Daily Repeat
Format: toxicity, organism-based, Sprague-Dawley
Parameters: regimen Daily Repeat, gender Male, age 6 weeks
Conditions: in vivo, po, 600 mg/kg, route gavage, dose level High; for APTT / Bas / Eos / Fbg / Hb / Ht / Lym / MCH / MCHC / MCV / Mono / Neu / PT / Plat / RBC / Ret / WBC: tissue Blood; for KIDNEY_L / KIDNEY_R / KIDNEY_TOTAL: tissue Kidney; for LIVER: tissue Liver; for A/G / ALP / ALT / AST / BUN / CRE / Ca / Cl / DBIL / GLC / IP / K / LDH / Na / PL / RALB / TBIL / TC / TG / TP / gamma-GTP: tissue Plasma

## C[C@](N)(Cc1ccc(O)c(O)c1)C(=O)O [METHYLDOPA]
72 h, time 3 day
  TERMINAL_BW: 188.1 g
  APTT: 17.3 s
  Bas: 0%
  Eos: 1.2%
  Fbg: 240 mg/dL
  Hb: 14.2 g/dL
  Ht: 41.8%
  Lym: 83.2%
  MCH: 21.4 pg
  MCHC: 34%
  MCV: 62.9 fL
  Mono: 2.4%
  Neu: 12.6%
  PT: 12.8 s
  Plat: 108 x10_4/uL
  RBC: 665.2 x10_4/ul
  Ret: 4.2%
  WBC: 54.3 x10_2/uL
  KIDNEY_L: 0.9 g
  KIDNEY_R: 0.9 g
  KIDNEY_TOTAL: 1.7 g
  LIVER: 8.1 g
  A/G: 0.8
  ALP: 1746 IU/L
  ALT: 54.4 IU/L
  AST: 74 IU/L
  BUN: 18.2 mg/dL
  CRE: 0.2 mg/dL
  Ca: 10.9 mg/dL
  Cl: 106.6 meq/L
  DBIL: 0.01 mg/dL
  GLC: 167.2 mg/dL
  IP: 7.8 mg/dL
  K: 4.1 meq/L
  LDH: 72.2 IU/L
  Na: 146.2 meq/L
  PL: 153 mg/dL
  RALB: 2.6 g/dL
  TBIL: 0.054 mg/dL
  TC: 95.6 mg/dL
  TG: 37.2 mg/dL
  TP: 5.5 g/dL
  gamma-GTP: 1 IU/L
[…], time 7 day
  TERMINAL_BW: 207.4 g
  APTT: 16.1 s
  Bas: 0%
  Eos: 1.2%
  Fbg: 259 mg/dL
  Hb: 14.4 g/dL
  Ht: 42.1%
  Lym: 81.6%
  MCH: 20.5 pg
  MCHC: 34.2%
  MCV: 60 fL
  Mono: 2.8%
  Neu: 14.4%
  PT: 12.2 s
  Plat: 106.1 x10_4/uL
  RBC: 702 x10_4/ul
  Ret: 3.6%
  WBC: 67.6 x10_2/uL
  KIDNEY_L: 0.9 g
  KIDNEY_R: 0.9 g
  KIDNEY_TOTAL: 1.8 g
  LIVER: 8.1 g
  A/G: 0.9
  ALP: 1646.8 IU/L
  ALT: 51 IU/L
  AST: 88.4 IU/L
  BUN: 14.6 mg/dL
  CRE: 0.2 mg/dL
  Ca: 10.9 mg/dL
  Cl: 107.6 meq/L
  DBIL: 0.008 mg/dL
  GLC: 179.2 mg/dL
  IP: 7.8 mg/dL
  K: 4.4 meq/L
  LDH: 66.4 IU/L
  Na: 146 meq/L
  PL: 133.2 mg/dL
  RALB: 2.7 g/dL
  TBIL: 0.064 mg/dL
  TC: 87.4 mg/dL
  TG: 26 mg/dL
  TP: 5.7 g/dL
  gamma-GTP: 1.2 IU/L
[…], time 14 day
  TERMINAL_BW: 241.7 g
  APTT: 16.5 s
  Bas: 0%
  Eos: 0.8%
  Fbg: 277 mg/dL
  Hb: 14.2 g/dL
  Ht: 40.9%
  Lym: 83.8%
  MCH: 21.1 pg
  MCHC: 34.7%
  MCV: 60.8 fL
  Mono: 1.8%
  Neu: 13%
  PT: 14.2 s
  Plat: 111.5 x10_4/uL
  RBC: 673.2 x10_4/ul
  Ret: 4.6%
  WBC: 86.9 x10_2/uL
  KIDNEY_L: 1 g
  KIDNEY_R: 1 g
  KIDNEY_TOTAL: 2 g
  LIVER: 9.1 g
  A/G: 0.8
  ALP: 1330.4 IU/L
  ALT: 43.8 IU/L
  AST: 65 IU/L
  BUN: 12.2 mg/dL
  CRE: 0.2 mg/dL
  Ca: 11.2 mg/dL
  Cl: 105.4 meq/L
  DBIL: 0.002 mg/dL
  GLC: 179.6 mg/dL
  IP: 7.9 mg/dL
  K: 4.7 meq/L
  LDH: 53.4 IU/L
  Na: 143 meq/L
  PL: 139.4 mg/dL
  RALB: 2.7 g/dL
  TBIL: 0.054 mg/dL
  TC: 91 mg/dL
  TG: 26.4 mg/dL
  TP: 5.8 g/dL
  gamma-GTP: 1 IU/L
[…], time 28 day
  TERMINAL_BW: 321.4 g
  APTT: 16.8 s
  Bas: 0%
  Eos: 1.2%
  Fbg: 300.8 mg/dL
  Hb: 14.9 g/dL
  Ht: 43.2%
  Lym: 75.4%
  MCH: 19.7 pg
  MCHC: 34.5%
  MCV: 57.2 fL
  Mono: 2%
  Neu: 21.2%
  PT: 14.1 s
  Plat: 101.5 x10_4/uL
  RBC: 756.4 x10_4/ul
  Ret: 2.4%
  WBC: 68.4 x10_2/uL
  KIDNEY_L: 1.2 g
  KIDNEY_R: 1.2 g
  KIDNEY_TOTAL: 2.5 g
  LIVER: 11.7 g
  A/G: 0.8
  ALP: 1178.8 IU/L
  ALT: 40 IU/L
  AST: 56.8 IU/L
  BUN: 13 mg/dL
  CRE: 0.2 mg/dL
  Ca: 11 mg/dL
  Cl: 104.4 meq/L
  DBIL: 0.016 mg/dL
  GLC: 177.2 mg/dL
  IP: 7.4 mg/dL
  K: 4.3 meq/L
  LDH: 39.2 IU/L
  Na: 144.8 meq/L
  PL: 140.6 mg/dL
  RALB: 2.7 g/dL
  TBIL: 0.062 mg/dL
  TC: 84.4 mg/dL
  TG: 37.6 mg/dL
  TP: 6 g/dL
  gamma-GTP: 1 IU/L
